A short description of data set [1]: Aqueous solubility of felodipine. It is filed as physicochemical.
Data set [2] can be described thus: pH of excipient and felodipine suspensions before and after heat treatment (Example 11). It is filed as physicochemical. On the procedure:
The heat treatment step involved heating the mixture at reflux for 15 minutes and allowing the mixture to stand over night.

Each structure is given as a SMILES string. ≈ marks a conversion by molar mass, not a printed value.

For orientation: solubility means how much of the substance goes into solution per volume. As to `CCOC(=O)C1=C(C)NC(C)=C(C(=O)OC)C1c1cccc(Cl)c1Cl` (racemic) [felodipine], the aqueous solubility result in data set [1] (all pH levels) is listed as “about 0.0001%”. In data set [1] (aqueous media), this compound gave a solubility of 0.5 µg/mL (≈ 1.3 µM).

As for `O=P([O-])([O-])O.[Ca+2]` [Dibasic calcium phosphate (DCP), Dibasic calcium phosphate], the pH in data set [2] (Heat Treatment (reflux 15 minutes, stand over night)) was 4.07; in data set [2] (Initial), 7.39. Also, in data set [2] (Heat Treatment versus Initial), the “Δ pH” value was −3.32.
